Measurements from patent US12331051B2 (priority 2021, dated 2025).

Key:
[1] = target: T1, Alpha 2A adrenergic receptor (Homo sapiens, UniProt P08913); test: Functional assay in HEK-293 cells (Ca2+ flux); type: cell-based
T1 construct: expressed in transfected cells; host or cells: HEK-293
T1 sequence (P08913 1-465): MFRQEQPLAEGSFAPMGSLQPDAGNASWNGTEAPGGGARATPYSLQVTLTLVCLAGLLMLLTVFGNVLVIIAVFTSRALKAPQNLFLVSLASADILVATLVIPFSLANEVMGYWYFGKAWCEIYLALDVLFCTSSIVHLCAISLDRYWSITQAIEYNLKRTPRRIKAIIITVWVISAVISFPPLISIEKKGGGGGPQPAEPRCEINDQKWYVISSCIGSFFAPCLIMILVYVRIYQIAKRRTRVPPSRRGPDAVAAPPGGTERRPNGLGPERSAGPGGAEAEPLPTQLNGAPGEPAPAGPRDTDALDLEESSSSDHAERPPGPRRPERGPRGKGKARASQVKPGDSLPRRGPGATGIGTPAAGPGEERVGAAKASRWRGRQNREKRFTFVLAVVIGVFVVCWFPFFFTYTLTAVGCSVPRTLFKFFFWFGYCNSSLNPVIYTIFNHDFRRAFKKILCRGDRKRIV
Method: (§1) Neuro-receptor binding and functional effects of the “E559 polymorph” was examined by analyzing binding affinity [Ki (nM)], functional agonist activity [EC50 (nM)], and functional antagonist activity [IC50 (nM)] against a panel of key receptors in neurophysiological disorders. Binding and functional assays were performed at “E559 polymorph” concentrations of 0.0003, 0.003, 0.01, 0.03, 0.1, 0.3, 1, and 10 μM. In binding assays, cell membrane homogenates, expressing each receptor target, were incubated with the corresponding radio-ligand in absence or presence of several concentration of the “E559 polymorph” compound. The measurement of binding affinity of the “E559 polymorph” is represented in TABLE XIII by Ki (nM) which was calculated as percent inhibition of the binding of a radioactively labeled reference ligand at each receptor. In functional assays the HEK-293 cells expressing each receptor target were suspended in buffer and distribute in microplates and incubated for 30 minutes at room temperature or 37° C. in the presence of buffer alone (basal control), the reference agonist or antagonist, or the “E559 polymorph. Following incubation, the cells were lysed and the appropriate fluorescent probe (Ca2+ flux, cAMP, or IP1) were added for 60 minutes to measure the fluorescence transfer at the appropriate wavelength using a microplate reader. The cellular agonist effect (EC50) was calculated as a percent of control response to a known reference agonist and the cellular antagonist effect (IC50) was calculated as a percent inhibition of control reference agonist response for each receptor.

[2] = target: ADRa2B (α2B adrenergic receptor) (Homo sapiens, UniProt P18089); test: BRET-based G protein dissociation assay; type: cell-based
Chain of ADRa2B (α2B adrenergic receptor) (P18089 whole entry): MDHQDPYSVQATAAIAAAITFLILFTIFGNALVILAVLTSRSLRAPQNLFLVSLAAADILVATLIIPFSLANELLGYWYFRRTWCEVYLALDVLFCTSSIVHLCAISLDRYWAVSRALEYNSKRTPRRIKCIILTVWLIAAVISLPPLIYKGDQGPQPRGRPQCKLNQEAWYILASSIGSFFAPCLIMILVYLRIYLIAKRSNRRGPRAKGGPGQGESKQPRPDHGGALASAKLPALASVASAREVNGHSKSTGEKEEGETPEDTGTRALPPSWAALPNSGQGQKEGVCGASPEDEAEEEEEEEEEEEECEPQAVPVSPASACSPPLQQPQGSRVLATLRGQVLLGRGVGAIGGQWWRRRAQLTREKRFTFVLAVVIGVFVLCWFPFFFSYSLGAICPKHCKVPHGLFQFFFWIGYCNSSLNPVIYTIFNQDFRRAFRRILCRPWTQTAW

[3] = target: T2, Alpha 1A adrenergic receptor (Homo sapiens, UniProt P35348); test: Radioligand binding, cell membrane homogenates
T2 construct: expressed in transfected cells; host or cells: HEK-293
T2 sequence (P35348 1-466): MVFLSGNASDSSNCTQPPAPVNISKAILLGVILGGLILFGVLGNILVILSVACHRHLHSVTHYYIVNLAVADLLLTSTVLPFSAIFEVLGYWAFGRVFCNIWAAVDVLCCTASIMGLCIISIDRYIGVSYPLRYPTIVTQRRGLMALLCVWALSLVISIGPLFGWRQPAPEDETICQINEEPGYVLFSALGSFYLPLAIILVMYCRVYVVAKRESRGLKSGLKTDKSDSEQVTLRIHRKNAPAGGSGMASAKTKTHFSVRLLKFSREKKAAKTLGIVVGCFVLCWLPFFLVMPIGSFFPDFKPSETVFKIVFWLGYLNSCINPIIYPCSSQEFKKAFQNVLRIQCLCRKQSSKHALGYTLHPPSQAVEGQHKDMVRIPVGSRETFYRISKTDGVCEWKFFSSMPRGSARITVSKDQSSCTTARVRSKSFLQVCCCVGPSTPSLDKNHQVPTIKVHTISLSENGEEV
Method: as §1

[4] = target: ADRb1 (β1 adrenergic receptor) (Homo sapiens, UniProt P08588); test: BRET-based G protein dissociation assay; type: cell-based
Chain of ADRb1 (β1 adrenergic receptor) (P08588 whole entry): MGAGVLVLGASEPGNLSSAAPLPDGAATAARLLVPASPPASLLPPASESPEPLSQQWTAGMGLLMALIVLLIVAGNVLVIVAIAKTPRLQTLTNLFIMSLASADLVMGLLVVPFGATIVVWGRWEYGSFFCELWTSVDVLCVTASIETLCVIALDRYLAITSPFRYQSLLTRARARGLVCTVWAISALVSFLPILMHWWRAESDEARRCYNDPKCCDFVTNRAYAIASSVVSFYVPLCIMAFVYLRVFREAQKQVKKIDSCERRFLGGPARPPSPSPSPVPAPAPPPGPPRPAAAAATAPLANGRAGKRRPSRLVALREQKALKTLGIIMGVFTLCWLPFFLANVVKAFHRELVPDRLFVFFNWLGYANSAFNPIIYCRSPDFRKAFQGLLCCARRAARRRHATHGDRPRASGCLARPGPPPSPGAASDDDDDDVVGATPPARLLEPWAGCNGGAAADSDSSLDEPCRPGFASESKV

5-HT1F = target: T3, 5-HT1F (Homo sapiens, UniProt P30939); test: Functional assay (cAMP); type: cell-based
T3 construct: expressed in transfected cells; host or cells: HEK-293
T3 sequence (P30939 1-366): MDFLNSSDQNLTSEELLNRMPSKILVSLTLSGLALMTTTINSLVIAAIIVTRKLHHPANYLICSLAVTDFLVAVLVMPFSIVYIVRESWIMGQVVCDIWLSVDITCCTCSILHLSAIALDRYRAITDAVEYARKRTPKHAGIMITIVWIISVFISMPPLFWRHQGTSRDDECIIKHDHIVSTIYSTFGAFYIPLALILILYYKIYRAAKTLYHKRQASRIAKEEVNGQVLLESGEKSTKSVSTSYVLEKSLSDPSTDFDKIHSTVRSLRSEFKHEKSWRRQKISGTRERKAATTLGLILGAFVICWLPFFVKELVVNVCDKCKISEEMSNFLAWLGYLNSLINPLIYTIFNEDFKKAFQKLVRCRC
Method: as §1
The functional agonist activity [EC50 (nM), Emax], and functional antagonist activity [IC50 (nM)] of the 5R:8S stereoisomer of the “E559 polymorph” (5R:8S E558) was compared with the “E559 polymorph” (a 5R:8R stereoisomer) at selected serotonin receptors. The assays were performed as described in Example 6.

stress naive mice = test: Open field test (OFT), stress naive mice; type: in vivo, mouse
Method: In brief, stress naive mice were treated (IP injection) with either saline (control) or single dose of the “E559 polymorph” at 0.3, 1, or 3 mg/kg dose levels and were evaluated 24 hours (OFT) and […] after treatment. The OFT was performed described in Example 13. The FST was performed as previously described in (Aguilar-Valles et al., Nature, 2021, 590, p315-319). Briefly FST was performed 24-hour post treatment by placing the mice (one by one) in a 4-liter wide-mouthed flask of 35° C. water. Mice activities were recorded for 6 minutes and assessed for total time the animal remains immobile, a sign of depressive-like behavior. FIG. 25A depicts the study design where female/male mice (n=10/group/sex) were treated by IP injection with the “E559 polymorph” or vehicle (saline) followed by open field and force swim test 24 hours post treatment. FIGS. 25B and 25E represent the total distance travelled in the open field test 24 hours after vehicle or the “E559 polymorph” in female and male mice, respectively. FIGS. 25C and 25F represent the time in the center of the open field by female and male mice, respectively. FIGS. 25D and 25G represent the immobility time during the last 4 minutes of the forced swim test in female and male mice, respectively. Horizontal lines represent the mean±standard error of the mean (S.E.M.) and asterisks indicate statistical significances.

Structure (SMILES): CCN(CC)C(=O)[C@@H]1C=C2c3cccc4[nH]c(Br)c(c34)C[C@H]2N(C)C1 [E559, (5R, 8R)-2-Bromo-9,10-didehydro-N,N-diethyl-6-methylergoline-8-carboxamide hemi-D-tartrate]
- EC50 [1]: > 10000 nM
- IC50 [1]: 260 nM
- Kb [2]: 79.2 nM
- Ki [3]: 59 nM
- EC50 [4]: > 10000 nM
- Kb [4]: 95.2 nM
- EC50 (5-HT1F): 13.8 nM
- Emax (5-HT1F; cAMP, ligand 5-HT, read-out: Functional Assay (agonist) Emax): 92.6%
- increase in exploration of the arena center (time in center), maximal effect (stress naive mice; female mice, IP 1 mg/kg, 24 hours after treatment): 88.18 ± 18.89 s
- exploration of the arena center (stress naive mice; female mice, IP 1 and 3 mg/kg, 24 hours after treatment): increased exploration of the arena center
- increased exploration of the stressogenic area of the open field (stress naive mice; male mice, IP 0.3, 1 or 3 mg/kg): not evident in male mice
